# According to patent US20260008862A1, “Bispecific Anti-BCMA x Anti-CD3 Antibodies and Uses Thereof” (Regeneron Pharmaceuticals, Inc., priority 2018, published 2026):
# Entries after “also recorded” stand apart in the source; their conditions may differ.
# What was measured:
# [1] = biological target: T1, cynomolgus CD3 (mfCD3 engineered Jurkat cell line) (Macaca fascicularis, UniProt Q95LI5+Q95LI8); assay: FACS binding to mfCD3 engineered Jurkat cells; settings: median EC50, FACS binding
# T1 construct: expressed in transfected cells; host or cells: Jurkat cells, CRISPR/Cas9-engineered (mfCD3 engineered Jurkat cell line)
# Description: Flow cytometric analysis was utilized to determine binding of BCMA×CD3 bispecific antibodies to human and cynomolgus CD3 (Jurkat cells, mfCD3 engineered Jurkat cells, primary human CD8+ and cynomolgus CD8+ T cells). Briefly, 1e05 cells/well were incubated in the presence of FACS wash with block (PBS+1% filtered FBS+5% mouse serum) with a serial dilution of BCMA×CD3 and control antibodies for 30 minutes on ice. After incubation, the cells were washed twice with cold FACS wash (PBS+1% filtered FBS) and bound antibody was detected by incubating with Alexa647-conjugated anti-human secondary antibody on ice for an additional 30 minutes. Wells containing no antibody or secondary only were used as a control. For the detection of monkey and human T cells, a cocktail of human and cynomolgus cross-reactive antibodies to CD4, CD8 and CD16 was added to the anti-human secondary. After incubation, cells were washed, re-suspended in 200 μL cold PBS containing 1% filtered FBS and analyzed by flow cytometry on a BD FACS Canto II. Cells were gated by FSC-H by FSC-A to select singlet events, followed by side and forward scatters to select for live events. For monkey T cells, additional gating on CD8+/CD16− cells was performed.
# EC50 values for FACS binding were calculated using 4-parameter non-linear regression analysis in Prism software. […]
# [2] = system: BCMA-expressing NCI-H929 tumors; assay: NCI-H929 + PBMC xenogenic tumor model, immediate treatment, dose response (Example 11); format: in vivo, mouse
# Description: To determine the in vivo efficacy of anti-BCMA×anti-CD3 bispecific antibodies (Abs), a xenogenic tumor study was performed. Immunodeficient NOD.Cg-Prkdc^scidIl2rg^tm1Wji/SzJ (NSG) mice were subcutaneously implanted with a mixture of 10×10^6 BCMA-expressing NCI-H929 human multiple myeloma tumor cells and 0.5×10^6 human peripheral blood mononuclear cells (PBMC) isolated from a normal, healthy donor. […] The mice were administered these Abs twice per week for a total of seven doses, and tumor growth was assessed over 60 days. While BCMA^+ NCI-H929 tumors grew similarly in the vehicle- and CD3-binding control-treated mice, both anti-BCMA×anti-CD3 Abs that were tested prevented the growth of tumors in a dose-dependent manner in vivo.
# Implantation and measurement of xenogenic tumors: NSG mice were subcutaneously implanted with a mixture of 10×10^6 BCMA-expressing NCI-H929 multiple myeloma cells and 0.5×10^6 PBMC derived from a normal, healthy donor. […] The mice were administered Abs twice per week for a total of seven doses. Tumor growth was measured with calipers twice per week for the duration of the experiment.
# (§1) Calculation of xenogenic tumor growth and inhibition: In order to determine tumor volume by external caliper, the greatest longitudinal diameter (length in mm) and the greatest transverse diameter (width in mm) were determined. Tumor volumes based on caliper measurements were calculated by the formula: Volume (mm^3)=(length×width^2)/2.
# [3] = system: BCMA-expressing MOLP-8 tumors; assay: MOLP-8 + PBMC subcutaneous xenogenic tumor model, dose response (Example 13); format: in vivo, mouse
# Description: To determine the in vivo efficacy of anti-BCMA×anti-CD3 bispecific antibodies (Abs), a xenogenic tumor study was performed. Immunodeficient NOD.Cg-Prkdc^scidIl2rg^tm1Wji/SzJ (NSG) mice were subcutaneously implanted with a mixture of 5×10^6 BCMA-expressing MOLP-8 human multiple myeloma tumor cells and 1×10^6 human peripheral blood mononuclear cells (PBMC) isolated from a normal, healthy donor. […] The mice were administered these Abs twice per week for a total of seven doses, and tumor growth was assessed over 56 days. While the BCMA^+ MOLP-8 tumors grew similarly in the vehicle- and CD3-binding control-treated mice, both BCMA×CD3 Abs that were tested prevented the growth of tumors in a dose-dependent manner in vivo.
# Implantation and measurement of xenogenic tumors: NSG mice were subcutaneously implanted with a mixture of 5×10^6 BCMA-expressing MOLP-8 multiple myeloma cells and 1×10^6 PBMC derived from a normal, healthy donor. […] The mice were administered Abs twice per week for a total of seven doses. Tumor growth was measured by caliper twice per week for the duration of the experiment.
# as §1
# T1 sequence (Q95LI5 22-198, change not shown): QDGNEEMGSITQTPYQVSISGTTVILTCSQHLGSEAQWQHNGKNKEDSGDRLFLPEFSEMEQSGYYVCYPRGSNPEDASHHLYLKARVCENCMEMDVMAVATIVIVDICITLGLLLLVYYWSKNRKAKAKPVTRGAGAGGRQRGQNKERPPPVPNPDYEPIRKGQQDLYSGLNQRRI
# T1 sequence (Q95LI8 22-171, change not shown): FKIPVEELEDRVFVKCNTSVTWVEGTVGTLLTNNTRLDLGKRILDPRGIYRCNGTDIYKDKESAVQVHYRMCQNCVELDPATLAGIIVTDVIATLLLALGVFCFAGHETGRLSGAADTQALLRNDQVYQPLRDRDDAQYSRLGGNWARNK
# T1 sequence (P09693 23-182 partner): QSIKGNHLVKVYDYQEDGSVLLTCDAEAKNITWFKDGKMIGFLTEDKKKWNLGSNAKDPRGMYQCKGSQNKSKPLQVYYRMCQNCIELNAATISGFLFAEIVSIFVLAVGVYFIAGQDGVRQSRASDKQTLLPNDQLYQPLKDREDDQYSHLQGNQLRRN
# T1 sequence (P20963 22-164 partner): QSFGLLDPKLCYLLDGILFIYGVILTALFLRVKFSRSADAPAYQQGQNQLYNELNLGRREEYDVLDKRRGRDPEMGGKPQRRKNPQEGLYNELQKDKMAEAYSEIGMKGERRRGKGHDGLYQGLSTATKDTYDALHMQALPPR
substance,measurement,setting,value
"REGN5459: anti-BCMA×anti-CD3 bispecific antibody: BCMA HCVR of mAb21581 (SEQ 66), CD3 HCVR of mAb7221G20 (SEQ 98), common LCVR SEQ 82",Jurkat-mfCD3 EC50 [M],[1],did not bind; also recorded: No Binding
same,Average Tumor Size (mm3) ± SEM on Day 4,[2]; 0.04 mg/kg,33.0 ± 4.4 mm3
same,Average Tumor Size (mm3) ± SEM on Day 7,[2]; 0.04 mg/kg,8.4 ± 4.0 mm3
same,Average Tumor Size (mm3) ± SEM on Day 12,[2]; 0.04 mg/kg,0 ± 0 mm3
same,Average Tumor Size (mm3) ± SEM on Day 19,[2]; 0.04 mg/kg,23.1 ± 23.1 mm3
same,Average Tumor Size (mm3) ± SEM on Day 22,[2]; 0.04 mg/kg,69.5 ± 69.5 mm3
same,Average Tumor Size (mm3) ± SEM on Day 26,[2]; 0.04 mg/kg,156.7 ± 156.7 mm3
same,Average Tumor Size (mm3) ± SEM on Day 29,[2]; 0.04 mg/kg,226.6 ± 226.6 mm3
same,Average Tumor Size (mm3) ± SEM on Day 4,[2]; 0.4 mg/kg,19.6 ± 4.4 mm3
same,Average Tumor Size (mm3) ± SEM on Day 12,[2]; 0.4 mg/kg,0 ± 0 mm3
same,Average Tumor Size (mm3) ± SEM on Day 15,[2]; 0.4 mg/kg,0 ± 0 mm3
same,Average Tumor Size (mm3) ± SEM on Day 19,[2]; 0.4 mg/kg,0 ± 0 mm3
same,Average Tumor Size (mm3) ± SEM on Day 22,[2]; 0.4 mg/kg,0 ± 0 mm3
same,Average Tumor Size (mm3) ± SEM on Day 26,[2]; 0.4 mg/kg,0 ± 0 mm3
same,Average Tumor Size (mm3) ± SEM on Day 29,[2]; 0.4 mg/kg,0 ± 0 mm3
same,Average Tumor Size (mm3) ± SEM on Day 34,[2]; 0.4 mg/kg,0 ± 0 mm3
same,Average Tumor Size (mm3) ± SEM on Day 39,[2]; 0.4 mg/kg,0 ± 0 mm3
same,Average Tumor Size (mm3) ± SEM on Day 42,[2]; 0.4 mg/kg,0 ± 0 mm3
same,Average Tumor Size (mm3) ± SEM on Day 46,[2]; 0.4 mg/kg,0 ± 0 mm3
same,Average Tumor Size (mm3) ± SEM on Day 55,[2]; 0.4 mg/kg,0 ± 0 mm3
same,Average Tumor Size (mm3) ± SEM on Day 60,[2]; 0.4 mg/kg,0 ± 0 mm3
same,Average Tumor Size (mm3) ± SEM on Day 4,[2]; 4 mg/kg,21.8 ± 3.4 mm3
same,Average Tumor Size (mm3) ± SEM on Day 7,[2]; 4 mg/kg,8.0 ± 4.3 mm3
same,Average Tumor Size (mm3) ± SEM on Day 12,[2]; 4 mg/kg,1.7 ± 1.7 mm3
same,Average Tumor Size (mm3) ± SEM on Day 15,[2]; 4 mg/kg,0 ± 0 mm3
same,Average Tumor Size (mm3) ± SEM on Day 19,[2]; 4 mg/kg,0 ± 0 mm3
same,Average Tumor Size (mm3) ± SEM on Day 22,[2]; 4 mg/kg,0 ± 0 mm3
same,Average Tumor Size (mm3) ± SEM on Day 26,[2]; 4 mg/kg,0 ± 0 mm3
same,Average Tumor Size (mm3) ± SEM on Day 29,[2]; 4 mg/kg,0 ± 0 mm3
same,Average Tumor Size (mm3) ± SEM on Day 34,[2]; 4 mg/kg,0 ± 0 mm3
same,Average Tumor Size (mm3) ± SEM on Day 39,[2]; 4 mg/kg,0 ± 0 mm3
same,Average Tumor Size (mm3) ± SEM on Day 42,[2]; 4 mg/kg,0 ± 0 mm3
same,Average Tumor Size (mm3) ± SEM on Day 46,[2]; 4 mg/kg,0 ± 0 mm3
same,Average Tumor Size (mm3) ± SEM on Day 55,[2]; 4 mg/kg,0 ± 0 mm3
same,Average Tumor Size (mm3) ± SEM on Day 60,[2]; 4 mg/kg,0 ± 0 mm3
same,Average Tumor Size (mm3) ± SEM on Day 3,[3]; 0.04 mg/kg,11.7 ± 2.1 mm3
same,Average Tumor Size (mm3) ± SEM on Day 7,[3]; 0.04 mg/kg,37.0 ± 5.7 mm3
same,Average Tumor Size (mm3) ± SEM on Day 10,[3]; 0.04 mg/kg,104 ± 23.0 mm3
same,Average Tumor Size (mm3) ± SEM on Day 14,[3]; 0.04 mg/kg,356.7 ± 84.6 mm3
same,Average Tumor Size (mm3) ± SEM on Day 17,[3]; 0.04 mg/kg,645.6 ± 140.9 mm3
same,Average Tumor Size (mm3) ± SEM on Day 21,[3]; 0.04 mg/kg,1442.4 ± 310.7 mm3
same,Average Tumor Size (mm3) ± SEM on Day 23,[3]; 0.04 mg/kg,2124.4 ± 444.1 mm3
same,Average Tumor Size (mm3) ± SEM on Day 28,[3]; 0.04 mg/kg,1939.3 ± 840.6 mm3
same,Average Tumor Size (mm3) ± SEM on Day 31,[3]; 0.04 mg/kg,2688.7 ± 1176.6 mm3
same,Average Tumor Size (mm3) ± SEM on Day 35,[3]; 0.04 mg/kg,612.1 ± 0 mm3
same,Average Tumor Size (mm3) ± SEM on Day 3,[3]; 0.4 mg/kg,14.0 ± 1.6 mm3
same,Average Tumor Size (mm3) ± SEM on Day 7,[3]; 0.4 mg/kg,0 ± 0 mm3
same,Average Tumor Size (mm3) ± SEM on Day 10,[3]; 0.4 mg/kg,0 ± 0 mm3
same,Average Tumor Size (mm3) ± SEM on Day 14,[3]; 0.4 mg/kg,0 ± 0 mm3
same,Average Tumor Size (mm3) ± SEM on Day 17,[3]; 0.4 mg/kg,0 ± 0 mm3
same,Average Tumor Size (mm3) ± SEM on Day 21,[3]; 0.4 mg/kg,0 ± 0 mm3
same,Average Tumor Size (mm3) ± SEM on Day 23,[3]; 0.4 mg/kg,0 ± 0 mm3
same,Average Tumor Size (mm3) ± SEM on Day 28,[3]; 0.4 mg/kg,0 ± 0 mm3
same,Average Tumor Size (mm3) ± SEM on Day 31,[3]; 0.4 mg/kg,0 ± 0 mm3
same,Average Tumor Size (mm3) ± SEM on Day 35,[3]; 0.4 mg/kg,0 ± 0 mm3
same,Average Tumor Size (mm3) ± SEM on Day 42,[3]; 0.4 mg/kg,0 ± 0 mm3
same,Average Tumor Size (mm3) ± SEM on Day 56,[3]; 0.4 mg/kg,0 ± 0 mm3
same,Average Tumor Size (mm3) ± SEM on Day 3,[3]; 4 mg/kg,12.9 ± 1.3 mm3
same,Average Tumor Size (mm3) ± SEM on Day 7,[3]; 4 mg/kg,0.6 ± 0.6 mm3
same,Average Tumor Size (mm3) ± SEM on Day 10,[3]; 4 mg/kg,0 ± 0 mm3
same,Average Tumor Size (mm3) ± SEM on Day 14,[3]; 4 mg/kg,0 ± 0 mm3
same,Average Tumor Size (mm3) ± SEM on Day 17,[3]; 4 mg/kg,0 ± 0 mm3
same,Average Tumor Size (mm3) ± SEM on Day 21,[3]; 4 mg/kg,0 ± 0 mm3
same,Average Tumor Size (mm3) ± SEM on Day 23,[3]; 4 mg/kg,0 ± 0 mm3
same,Average Tumor Size (mm3) ± SEM on Day 28,[3]; 4 mg/kg,1.9 ± 1.9 mm3
same,Average Tumor Size (mm3) ± SEM on Day 31,[3]; 4 mg/kg,3.8 ± 3.0 mm3
same,Average Tumor Size (mm3) ± SEM on Day 35,[3]; 4 mg/kg,9.3 ± 7.5 mm3
same,Average Tumor Size (mm3) ± SEM on Day 42,[3]; 4 mg/kg,12.8 ± 12.8 mm3
same,Average Tumor Size (mm3) ± SEM on Day 56,[3]; 4 mg/kg,17.2 ± 17.2 mm3
